The values below come from patent US12240854B2, “TRAF 6 inhibitors” (Helmholtz Zentrum München - Deutsches Forschungszentrum für …, priority 2018, dated 2025).

In one data set the target is T1, MDM2 (Homo sapiens, UniProt Q00987).
T1 construct: purchased Boston Biochem
Put plainly: In vitro ubiquitination assay, MDM2 ubiquitin ligase kit (p53 substrate). The format is biochemical. Conditions: K48 chain formation. As to the method:
For analysis of cIAP1, MDM2, TRIM63, RNF4, ITCH and E6AP mediated poly-ubiquitination, the respective ubiquitin ligase kit from Boston Biochem (K-102, K-260, K-200B, K-220, K-240 and K-270) was used. Here, reaction buffer, E1, E2 and E3 enzyme (and p53 substrate in case of MDM2) were mixed and pre-incubated with compound or DMSO for 5 minutes at room temperature before adding Mg^2+-ATP and mono-ubiquitin for reaction start. Ubiquitination was visualized by Western Blot analyses.

The test system of data set [1] is IKK kinase activity in MEF cells. The experiment in a line: IKK kinase assay in MEF cells. The format is cell-based, mouse. As to the method:
(§1) For MEF cells, 5.5×10^5 cells were seeded, then treated with compound for 6 hours and eventually stimulated with IL-1β or TNFα for 8 minutes. 1×10^6 Jurkat T-cells were treated with compound for 6 hours and finally stimulated with PMA (400 ng/ml) and lonomycin (600 ng/ml) for 8 minutes. After cell lysis in Co-IP lysis buffer (150 mM NaCl; 25 mM Hepes (pH 7.5); 0.2% NP-40; 1 mM Glycerol; 10 mM NaF; 8 mM β-Glycerophosphat; 1 mM DTT; 300 μM Sodium-vanadate; complete protease inhibitor), input samples were taken and the supernatant was then incubated with 6 μL IKKγ antibody FL-419 (Santa Cruz Biotechnology). Upon incubation with Protein-G-Sepharose beads (GE Healthcare), beads were washed in Co-IP wash buffer (150 mM NaCl; 25 mM Hepes (pH 7.5); 0.2% NP-40; 1 mM Glycerol) and transferred into kinase reaction buffer ([…] HEPES pH7.9; 10 mM MgCl2; 20 μM ATP; 20 mM β-Glycerophosphat; 200 μM Sodium-Vanadate; 1 mM DTT) supplemented with […] GST-IκBα (1-53) and 0.5 μL ^32P-γ-ATP. After 30 minutes incubation at 37° C., reaction was stopped and analyzed by autoradiography as well as Western Blot after separation on SDS-PAGE.

Data set [2] deals with IKK kinase activity in Jurkat T-cells. The experiment in a line: IKK kinase assay in Jurkat T-cells. Format: cell-based, human. Conditions: PMA/Ionomycin. As to the method: as §1
Data set [3] deals with NF-κB target genes ICAM-1 and A20 in MEF cells. Put plainly: mRNA expression (qRT-PCR) in MEF cells. The format is cell-based, mouse. As to the method:
For MEF cells, 1.2×10^5 cells per sample were seeded, treated with compound for 6 hours and stimulated with either IL-1β or TNFα for 60 minutes. Jurkat T-cells and primary mouse CD4^+ T-cells were seeded at 2×10^5 cells per sample, also treated with compound for 6 hours and stimulated with PMA/lonomycin for 3 hours. RNA was isolated according to the manufacturer's protocol of the Qiagen RNeasy Kit (MEF cells) or the STRATEC INVITRAP® SPIN UNIVERSAL RNA MINI KIT (Jurkat T-cells). The isolation of mRNA from […] white adipose tissue from DIO mice was performed using TRIzol® Reagent according to manufacturer's instruction. To clear the isolated RNA from genomic DNA, samples (up to 5 μg RNA) were treated with RQ1 RNase-Free DNaseI (Promega) as described in the technical manual. For the reverse transcription of RNA into cDNA, the DNaseI digested RNA samples were processed using the SuperScript III First Strand cDNA Synthesis System (Invitrogen/ThermoFisher Scientific) following the manufacturer's protocol. […] For quantification of cDNA in the samples, the LightCylcer480 (Roche) and the KAPA SYBR FAST qPCR Kit were used. For relative quantification, the ΔΔCp method first described by Pfaffl (Pfaffl, M. W., A new mathematical model for relative quantification in real-time RT-PCR. Nucleic Acids Res, 2001. 29(9): p. e45) was applied.

Data set [4] deals with T2, TRAF6-Ubc13 binding in HEK293T cells (Homo sapiens, UniProt Q9Y4K3).
T2 construct: RING-Zincfinger1 (RZ1) domain (residues 50-159) of human TRAF6 wildtype; expressed in transfected cells; host or cells: HEK 293T
T2 sequence (Q9Y4K3 50-159): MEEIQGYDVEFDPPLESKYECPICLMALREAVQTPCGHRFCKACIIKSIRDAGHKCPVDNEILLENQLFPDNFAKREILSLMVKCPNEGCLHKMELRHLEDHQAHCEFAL
The experiment in a line: Co-immunoprecipitation of HA-TRAF6 and Ubc13 in HEK 293T cells. The format is cell-based. As to the method: To study the interaction of TRAF6 and Ubc13 in cells, 1×10^6 293T cells were seeded and after 18 hours cells were transfected with 1 μg pEF-HA empty or pEF-HA-TRAF6 RZ1 plasmid using the X-tremeGENE HP DNA transfection reagent (Roche). 6 hours upon transfection, cells were treated with compound or DMSO. After 42 hours further incubation, cells were harvested in Co-IP lysis buffer and HA-TRAF6 was immunoprecipitated with anti-HA affinity matrix (Roche). Binding of Ubc13 to TRAF6 was examined in Western Blot analysis.

Data set [5] relates to HBL1 (ABC-DLBCL-MYD88 L265P). The experiment in a line: Cell viability in DLBCL, HBL1. Format: cell-based. Conditions: HBL1, 30 μM, added at day 0, 4 and 8, 9 days. As to the method: To determine the effects of C25-140 on MYD88-dependent ABC-DLBCL, we chose the HBL1 (ABC-DLBCL-MYD88 L265P), U2932 (ABC DLBCL-MYD88 wt) and BJAB (GCB DLBCL) cell lines. 1×10^6 cells of each cell line was seeded in 5 ml and treated with 30 μM compound C25-140 (compound 3) or DMSO. The entire experiment was carried out for 9 days. Every day 500 μl were taken and viable cell number was acquired using the ViCEII cell counter (Beckmann Coulter). At days 4 and 8 of the experiment the volume was again adjusted to 5 ml and samples were supplemented with 30 μM compound C25-140 or DMSO. This process was necessary to ensure linear proliferation of DMSO treated cells. All curves of C25-140 treated samples were referred to the corresponding DMSO treated controls.

Data set [6] deals with Diet-Induced-Obesity (DIO) mice. The experiment in a line: Diet-Induced-Obesity (DIO) mouse study. Format: in vivo. The following applies: 7.4 mg/kg IP once daily. As to the method: Mice were fed a high-fat-diet until they reached a body weight of at least 40 g and developed […]. These mice were separated in control group and a group for C25-140 (compound 3) injection. Mice were treated every day with 14 μmol/kg (=7.4 mg/kg) C25-140 intraperitoneally for a period of 20 days. Thereby, C25-140 was dissolved in 2.9% DMSO, 1.5% Tween-80 and 1×PBS. Every day before injection, the body weight and food intake were measured. On day 20, mice were sacrificed two hours after compound injection and […] white adipose tissue from both body sites was removed, frozen in liquid nitrogen and stored at −80° C.

The structures appear in SMILES notation. Entries after “also recorded” stand apart in the source; their conditions may differ.

T1 sequence (Q00987 whole entry): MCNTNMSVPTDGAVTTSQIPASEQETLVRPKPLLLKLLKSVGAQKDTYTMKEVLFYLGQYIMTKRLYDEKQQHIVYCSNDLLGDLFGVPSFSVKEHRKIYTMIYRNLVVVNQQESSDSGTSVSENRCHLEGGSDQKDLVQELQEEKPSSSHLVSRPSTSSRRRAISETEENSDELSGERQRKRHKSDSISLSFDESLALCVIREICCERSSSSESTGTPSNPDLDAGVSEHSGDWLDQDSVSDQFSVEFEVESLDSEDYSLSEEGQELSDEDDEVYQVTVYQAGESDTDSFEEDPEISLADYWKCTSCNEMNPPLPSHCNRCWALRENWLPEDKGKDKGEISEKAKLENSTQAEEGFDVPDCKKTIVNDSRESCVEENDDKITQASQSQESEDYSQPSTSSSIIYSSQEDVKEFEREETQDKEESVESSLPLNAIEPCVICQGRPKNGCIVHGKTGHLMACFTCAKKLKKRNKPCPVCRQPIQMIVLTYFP

`Cc1nn(-c2ccc3nnc(C)n3n2)c(C)c1CCC(=O)N1CCC(Cc2ccccc2)CC1` [Example C25-140, 1-(4-Benzylpiperidin-1-yl)-3-(3,5-dimethyl-1-(3-methyl-[1,2,4]-triazolo-[4,3-b]-pyridazin-6-yl)-1H-pyrazol-4-yl)-propan-1-one]: the “p53 ubiquitination by MDM2” value on MDM2 is “not influenced; also recorded: not affected”. The “IKK kinase activity, phosphorylation of IκBα” value is “decreased IKK kinase activity; also recorded: decreased phosphorylation of IκBα” in data set [1] (IL-1β stimulation) and “also affects” in data set [1] (TNFα stimulation). Besides, in data set [2], the IKK kinase activity entry is reported as “reduced; also recorded: diminished”. For the same molecule, the “mRNA expression of target genes (ICAM-1 and A20)” value in data set [3] (IL-1β stimulation) is “diminished target gene expression; also recorded: impaired”; in data set [3] (TNFα stimulation), “also affects”. In data set [4], the “interaction of endogenous Ubc13 with HA-tagged TRAF6 (co-immunoprecipitation)” value is recorded as “reduced interaction; also recorded: most active analogs; also recorded: dose-dependently decreases; also recorded: demonstrated inhibition of TRAF6-Ubc13 binding”. Besides, the “viability of MYD88-dependent ABC-DLBCL” value in data set [5] was “selectively kills ABC-DLBCL with chronic MYD88 signaling; also recorded: significantly reduced viability; also recorded: diminished”. Also, in data set [6] (20 days), the food intake entry is “did not differ; also recorded: remains unaffected”. Besides, the body weight gain entry in data set [6] (20 days, high-fat-diet) is on record as “reduces gain of weight; also recorded: hardly increased body weight; also recorded: milder body weight gain”. For the same molecule, the “mRNA levels of IL-1β and VCAM in epidermal white adipose tissue” value in data set [6] (day 20) is “reduces IL-1β expression; also recorded: significantly reduced; also recorded: decreased”.
